The values below come from US8119642B2, “Structurally rigid dopamine D3 receptor selective ligands and process for making them” (The United States of America as represented by the …, priority 2002, dated 2012).

Where two headings read alike, the source gives them in different places. A value given as a limit tells only on which side of the number the result lay.

The target of test [1] is T1, human D2-long dopamine receptor (Homo sapiens, UniProt P14416).
T1 construct: expressed in transfected cells
T1 sequence (P14416 whole entry): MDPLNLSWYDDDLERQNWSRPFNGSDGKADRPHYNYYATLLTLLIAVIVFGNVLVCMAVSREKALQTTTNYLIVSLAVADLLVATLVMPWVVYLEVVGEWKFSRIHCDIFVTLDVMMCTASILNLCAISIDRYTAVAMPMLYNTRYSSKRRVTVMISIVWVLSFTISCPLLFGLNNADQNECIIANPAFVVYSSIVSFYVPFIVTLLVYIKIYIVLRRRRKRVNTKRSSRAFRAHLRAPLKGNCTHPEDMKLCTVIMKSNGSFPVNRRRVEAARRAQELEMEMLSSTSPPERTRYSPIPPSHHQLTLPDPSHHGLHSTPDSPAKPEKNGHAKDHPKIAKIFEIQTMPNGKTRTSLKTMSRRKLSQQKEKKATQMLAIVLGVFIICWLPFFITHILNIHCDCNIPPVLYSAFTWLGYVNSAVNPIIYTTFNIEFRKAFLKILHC
As to the kind of experiment: Binding in cloned human D2 receptors in HEK cells. The following applies: 125I-IABN. The text has this:
(§1) Human dopamine D2-long (“D2”) and D3 ([…]) receptors were expressed in HEK cells. In brief, stably transfected HEK cells expressing the human D2-long and the D3 dopamine receptor were developed using the pIRES bicistronic expression vector (CLONTECH; Palo Alto, Calif.). […] For comparison, human dopamine D4 (“D4”) receptors were obtained from HEK 293 cells stably transfected with a PCR product o'f a human cDNA coding for the D4.4 form of the human D4 dopamine receptor.

Test [2] has as its target T2, human D3 dopamine receptor (Homo sapiens, UniProt P35462).
T2 construct: expressed in transfected cells
As to the kind of experiment: Binding in cloned human D3 receptors in HEK cells. The conditions noted are these: for D2/D3: ratio of D2 to D3 binding values.
Text: as §1

Test [3] deals with T3, D4.4 form of the human D4 dopamine receptor (Homo sapiens, UniProt P21917).
T3 construct: expressed in transfected cells
T3 sequence (P21917 1-419): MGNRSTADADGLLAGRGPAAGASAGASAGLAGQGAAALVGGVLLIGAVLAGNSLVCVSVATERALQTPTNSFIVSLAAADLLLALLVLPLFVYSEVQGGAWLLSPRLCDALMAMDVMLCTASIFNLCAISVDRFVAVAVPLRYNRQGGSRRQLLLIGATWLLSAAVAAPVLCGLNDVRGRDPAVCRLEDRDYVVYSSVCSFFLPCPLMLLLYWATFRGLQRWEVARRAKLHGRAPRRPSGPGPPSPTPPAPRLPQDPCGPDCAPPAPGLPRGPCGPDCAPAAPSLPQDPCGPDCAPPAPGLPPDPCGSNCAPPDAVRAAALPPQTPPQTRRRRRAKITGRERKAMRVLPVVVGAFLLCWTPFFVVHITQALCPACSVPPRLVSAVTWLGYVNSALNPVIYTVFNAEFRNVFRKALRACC
As to the kind of experiment: Binding in cloned human D4 receptors in HEK cells. The following applies: cloned human D4.4 receptors in HEK 293 cells. As to the method:
Human dopamine D2-long (“D2”) and D3 ([…]) receptors were expressed in HEK cells. In brief, stably transfected HEK cells expressing the human D2-long and the D3 dopamine receptor were developed using the pIRES bicistronic expression vector (CLONTECH; Palo Alto, Calif.). The level of expression of D2 or D3 receptors was determined to be greater than 2,000 fmoles/mg protein. For comparison, human dopamine D4 (“D4”) receptors were obtained from HEK 293 cells stably transfected with a PCR product o'f a human cDNA coding for the D4.4 form of the human D4 dopamine receptor. The density of binding sites is approximately 1000 fmol/mg protein.
Methods for performing in vitro dopamine receptor binding studies are described in Huang et al. J. Med. Chem. 44:1815-1826 (2001) and Luedtke et al. Synapse 38:438-439 (2000), the contents of which are hereby incorporated by reference. […] Therefore, ^125I-IABN appears to be a high affinity, selective antagonist at D2-like dopamine receptors.

For the next test, the target named is T4, hD3 (Homo sapiens, UniProt P35462).
T4 construct: expressed in transfected cells; host or cells: CHOp- cells, kept under G418
T4 sequence (P35462 whole entry): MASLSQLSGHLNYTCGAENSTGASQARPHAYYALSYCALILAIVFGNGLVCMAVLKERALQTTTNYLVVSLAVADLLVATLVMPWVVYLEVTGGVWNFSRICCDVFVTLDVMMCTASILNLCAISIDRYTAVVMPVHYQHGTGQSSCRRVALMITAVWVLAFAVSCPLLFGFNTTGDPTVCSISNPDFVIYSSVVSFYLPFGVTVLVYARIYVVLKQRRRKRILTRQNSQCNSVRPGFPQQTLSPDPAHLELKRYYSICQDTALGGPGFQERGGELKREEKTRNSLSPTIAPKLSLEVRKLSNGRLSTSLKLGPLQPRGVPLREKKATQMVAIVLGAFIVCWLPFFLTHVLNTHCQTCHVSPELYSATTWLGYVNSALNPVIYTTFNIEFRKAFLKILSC
As to the kind of experiment: D3 functional assay, stimulation of mitogenesis in CHO cells (agonist assay). The format is cell-based. The conditions noted are these: for EC50: [3H]thymidine, read-out: Agonist EC50 (nM) ± S.E.M. As to the method: The cells were incubated at 37° C. in α-MEM with 10% FBS, 0.05% penicillin-streptomycin, and 200 μg/mL of G418. After 48 hours, the cells were rinsed twice with serum-free α-MEM and incubated for 24 hours at 37° C. In the functional assay for agonism, the medium was removed and replaced with 90 μl of serum-free α-MEM and 10 μl of test compound in sterile water; in the antagonist assay, the test compound was diluted in sterile water plus 30 nM quinpirole. After another 24-hour incubation at 37° C., 0.25 μCi of [^3H]thymidine was added to each well and the plates were further incubated for 2 hours at 37° C. The cells were then trypsinized, and the plates were filtered and counted as usual in the art. Quinpirole was run on every plate as an internal standard.

The target of test [4] is T5, human D4.4 dopamine receptors (Homo sapiens, UniProt P21917).
T5 construct: expressed in transfected cells; host or cells: HEK 293 cells
T5 sequence (P21917 1-419): T3 sequence (P21917 1-419)
The following applies: HEK 293 cells; cited from earlier work.

The next test relates to sigma σ1 binding sites. The conditions noted are these: cited from earlier work.
The next test relates to sigma σ2 binding sites. The following applies: cited from earlier work.
For another test, the target named is D1a dopamine receptors (Homo sapiens, UniProt P21728). The conditions noted are these: cited from earlier work.
Sequence of D1a dopamine receptors (P21728 whole entry): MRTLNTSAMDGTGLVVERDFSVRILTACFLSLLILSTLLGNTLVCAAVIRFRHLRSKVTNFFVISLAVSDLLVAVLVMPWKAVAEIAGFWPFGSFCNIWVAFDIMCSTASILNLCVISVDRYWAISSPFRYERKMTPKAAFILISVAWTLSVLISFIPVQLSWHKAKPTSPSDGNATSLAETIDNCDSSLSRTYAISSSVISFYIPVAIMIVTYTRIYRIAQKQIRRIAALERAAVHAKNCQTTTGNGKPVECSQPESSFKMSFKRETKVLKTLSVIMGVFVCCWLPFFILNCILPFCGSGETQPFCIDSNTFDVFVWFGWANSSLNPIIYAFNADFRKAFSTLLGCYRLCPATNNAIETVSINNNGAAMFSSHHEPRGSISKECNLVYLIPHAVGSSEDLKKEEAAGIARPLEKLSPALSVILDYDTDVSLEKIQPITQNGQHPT
Setting [5] is: cloned human D3 receptors in HEK cells, 125I-IABN, read-out: D3 binding data.

T2 sequence (P35462 whole entry): as the sequence (P35462 whole entry) above

For `O=C(NCC#CCN1CCN(c2cccc(Cl)c2Cl)CC1)c1ccc2c(c1)Cc1ccccc1-2` [JJC 2-078], the results for the Ki in test [1] and in test [2] (setting [5]) were 1650 ± 692 nM and 41.5 ± 5.4 nM, respectively. `O=C(NC/C=C/CN1CCN(c2cccc(Cl)c2Cl)CC1)c1ccccn1` [PG01034]: the Ki amounted to 31.2 ± 3.1 nM in test [1] and 2 ± 0.6 nM in test [2].

In test [1], `O=C(NC/C=C/CN1CCN(c2cccc(Cl)c2Cl)CC1)c1cccnc1` [PG01022] showed a Ki of 11.2 ± 5.6 nM. Molecule `COc1ccccc1C(=O)NC/C=C/CN1CCN(c2cccc(Cl)c2Cl)CC1` [PG01027] came in with a Ki in test [1] of 5.3 ± 3 nM.

For the molecule `O=C(NC/C=C/CN1CCN(c2cccc(Cl)c2Cl)CC1)c1ccc(F)cc1` [PG01012], the Ki in test [1] came to 8.1 ± 2.7 nM. The same measure, in the same setting: as for `O=C(NC/C=C/CN1CCN(c2cccc(Cl)c2Cl)CC1)c1ccccc1O` [PG01025], the figure is 7.3 ± 3.2 nM.

Take `COc1cccc(C(=O)NC/C=C/CN2CCN(c3cccc(Cl)c3Cl)CC2)c1` [EEC 069]: the figures for the Ki in test [1] and in test [2] (setting [5]) were 56.9 ± 19.1 nM and 4 ± 1.6 nM, respectively. `O=C(NC/C=C/CN1CCN(c2cccc(Cl)c2Cl)CC1)c1ccccc1[N+](=O)[O-]` [PG01029] gave a Ki in test [1] of 10.5 ± 4.5 nM. On the same count and under the same terms, as for `COc1ccc(C(=O)NC/C=C/CN2CCN(c3cccc(Cl)c3Cl)CC2)cc1` [EEC 067], the figure is 34.7 ± 11.4 nM; as for `O=C(NC/C=C/CN1CCN(c2cccc(Cl)c2Cl)CC1)c1ccncc1` [PG01035], 17.2 ± 4.2 nM. As to `O=C(NC/C=C/CN1CCN(c2cccc(Cl)c2Cl)CC1)c1cnc2ccccc2n1` [PG01020], the Ki worked out at 70 ± 7.6 nM in test [1] and 1110 ± 555 nM in test [3]. As to `O=C(NC/C=C/CN1CCN(c2cccc(Cl)c2Cl)CC1)c1ccccc1Cl` [PG01009], the Ki in test [1] amounted to 13.1 ± 5.5 nM. In the case of `O=C(NC/C=C/CN1CCN(c2cccc(Cl)c2Cl)CC1)c1ccc2c(c1)Cc1ccccc1-2` [JJC 2-071], the Ki in test [1] is 186 ± 8 nM; in test [2] (setting [5]) it was 3.4 ± 2.9 nM. Further, on hD3, the “% Max Stim. ± S.E.M.” value was determined as 44.1 ± 0.9%.

For the molecule `O=C(NC/C=C/CN1CCN(c2cccc(Cl)c2Cl)CC1)c1ccc(Cl)cc1` [PG01007], the Ki in test [1] was 25 ± 10.8 nM; in test [2] (setting [5]), 1.6 ± 1 nM. With `O=C(NC/C=C/CN1CCN(c2cccc(Cl)c2Cl)CC1)c1cccc(Cl)c1` [EEC 063], the Ki in test [2] (setting [5]) was 2.1 ± 1.1 nM.

Consider `Nc1ccccc1C(=O)NC/C=C/CN1CCN(c2cccc(Cl)c2Cl)CC1` [PG01038], for which the results for the Ki in test [1] and in test [2] (setting [5]) were 25.6 ± 6.8 nM and 2.7 ± 0.8 nM, respectively.

With `O=C(NC/C=C/CN1CCN(c2cccc(Cl)c2Cl)CC1)c1ccc(-c2cccnc2)cc1` [PG01041], the figures for the Ki in test [1] and in test [3] were 63.3 ± 16.5 nM and 486 ± 157 nM, respectively. In the case of `O=C(NCC#CCN1CCN(c2cccc(Cl)c2Cl)CC1)c1cccc2c1-c1ccccc1C2` [JJC 2-077], the Ki in test [1] was found to be 592 ± 27 nM; in test [2] (setting [5]), 318 ± 32 nM. As to `O=C(NC/C=C/CN1CCN(c2cccc(Cl)c2Cl)CC1)c1cc2ccccc2o1` [PG01055], the Ki in test [1] came out at 101 ± 16.9 nM. For the molecule `O=C(NCC=CCN1CCN(c2cccc(Cl)c2Cl)CC1)c1ccc(I)cc1` [EEC 017, N-{4-[4-(2,3-Dichloro-phenyl)-piperazin-1-yl]-but-2-enyl}-4-iodo-benzamide], the Ki in test [1] is 35.4 ± 7.6 nM; in test [2] (setting [5]), 4.2 ± 1.5 nM. Besides, the D2/D3 in test [2] stood at 8.

`COc1cc([125I])cc(C(=O)NC2CC3CCCC(C2)N3Cc2ccccc2)c1OC` (stereo not drawn) [IABN]: in test [4], the “fold lower affinity at human D4.4 than at D2 and D3 receptors” value was 7- to 10 fold. Besides, the “affinity for sigma σ1 binding sites” value in the test on sigma σ1 binding sites is listed as “low affinity”. Besides, the “affinity for sigma σ2 binding sites” value in the test with sigma σ2 binding sites is given as “low affinity”. At D1a dopamine receptors, the “affinity for D1a dopamine receptors” value is given as “low affinity”. Regarding `O=C(NC/C=C/CN1CCN(c2cccc(Cl)c2Cl)CC1)c1cccc(I)c1` [EEC 019], in test [2] (setting [5]), the Ki worked out at 3.9 ± 1.2 nM. As usually defined, the EC50 is the concentration needed to bring the measured effect to its halfway point. For `O=C(NC/C=C\CN1CCN(c2cccc(Cl)c2Cl)CC1)c1ccccc1` [JJC 2-083], the concentration for a half-maximal effect (EC50) on hD3 is greater than 10000 nM. On to `O=C(NCC=CCN1CCN(c2cccc(Cl)c2Cl)CC1)c1ccc(O)cc1` [PG01015, N-{4-[4-(2,3-Dichloro-phenyl)-piperazin-1-yl]-but-2-enyl}-4-hydroxy-benzamide], for which the Ki in test [1] came out at 13.7 ± 4.8 nM; in test [2], 0.4 nM; in test [3], 356 ± 26.5 nM. In test [2], the D2/D3 was 34.

On to `O=C(NC/C=C/CN1CCN(c2cccc(Cl)c2Cl)CC1)c1ccccc1I` [PG01018], for which, in test [1], the Ki was found to be 12.7 ± 4.1 nM.

As to `O=C(NC/C=C/CN1CCN(c2cccc(Cl)c2Cl)CC1)c1ccc([N+](=O)[O-])cc1` [EEC 027], the Ki was found to be 0.6 ± 0.2 nM in test [2] (setting [5]) and 461 ± 187 nM in test [3]. Consider `O=C(NC/C=C/CN1CCN(c2cccc(Cl)c2Cl)CC1)c1cc2ccccc2s1` [PG01030], for which, in test [2], the Ki was found to be 1.3 ± 0.5 nM. As to `O=C(NC/C=C\CN1CCN(c2cccc(Cl)c2Cl)CC1)c1ccc2c(c1)Cc1ccccc1-2` [JJC 2-085], the results for the Ki in test [1] and in test [2] (setting [5]) were 61.1 ± 19.2 nM and 3.8 ± 1.4 nM, respectively. For the molecule `O=C(NC/C=C/CN1CCN(c2cccc(Cl)c2Cl)CC1)c1ccc(-c2ccccn2)cc1` [PG01037], the Ki was found to be 81.9 ± 20.7 nM in test [1] and 505 ± 62.5 nM in test [3]. Turning to `O=C(NC/C=C/CN1CCN(c2cccc(Cl)c2Cl)CC1)c1ccccc1` [JJC 2-068], the Ki in test [2] (setting [5]) was found to be 0.6 ± 0.1 nM. The half-maximal effective concentration (EC50) on hD3 is greater than 10000 nM. On to `O=C(NCC#CCN1CCN(c2cccc(Cl)c2Cl)CC1)c1ccccc1` [JJC 2-062], for which the Ki in test [1] worked out at 491 ± 108 nM; in test [2] (setting [5]) it was 127 ± 10 nM.
